Reference: PubChem BioAssay (NCI)
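Protocol summary: plate cells (96-well), add compound at 5 concentrations, incubate 48 h, interpolate endpoints linearly. GI50 = concentration required for 50% inhibition of growth. TGI: total growth inhibition.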

Tests used:
Experiment in all cases: NCI-60 cell line screen, 48 h
[1] = tested on: M14 melanoma
[2] = tested on: SK-MEL-28 melanoma
[3] = tested on: SK-MEL-2 melanoma
[4] = tested on: BT-549 breast
[5] = tested on: SN12C renal
[6] = tested on: 786-0 renal
[7] = tested on: UACC-62 melanoma
[8] = tested on: TK-10 renal
[9] = tested on: SK-OV-3 ovarian
[10] = tested on: CAKI-1 renal
[11] = tested on: UO-31 renal
[12] = tested on: LOX IMVI melanoma
[13] = tested on: EKVX NSCLC
[14] = tested on: T-47D breast
[15] = tested on: IGROV1 ovarian
[16] = tested on: HL-60(TB) leukemia
[17] = tested on: HOP-62 NSCLC
[18] = tested on: SK-MEL-5 melanoma
[19] = tested on: HCT-116 colon
[20] = tested on: HOP-92 NSCLC
[21] = tested on: HS 578T breast
[22] = tested on: SF-268 CNS
[23] = tested on: MDA-MB-435
[24] = tested on: RPMI-8226 leukemia
[25] = tested on: HCT-15 colon
[26] = tested on: HCC-2998 colon
[27] = tested on: UACC-257 melanoma
[28] = tested on: NCI-H522 lung
[29] = tested on: OVCAR-4 ovarian
[30] = tested on: MCF7 breast
[31] = tested on: SNB-75 CNS
[32] = tested on: SW-620 colon
[33] = tested on: NCI-H23 lung
[34] = tested on: SF-295 CNS
[35] = tested on: RXF 393 renal
[36] = tested on: PC-3 prostate
[37] = tested on: U251 CNS
[38] = tested on: CCRF-CEM leukemia
[39] = tested on: OVCAR-8 ovarian
[40] = tested on: NCI-H226 lung
[41] = tested on: KM12 colon
[42] = tested on: NCI/ADR-RES ovarian
[43] = tested on: NCI-H460 lung
[44] = tested on: MOLT-4 leukemia
[45] = tested on: MDA-MB-231 breast
[46] = tested on: K-562 leukemia
[47] = tested on: OVCAR-5 ovarian
[48] = tested on: A498 renal
[49] = tested on: MALME-3M melanoma
[50] = tested on: HT29 colon
[51] = tested on: SNB-19 CNS
[52] = tested on: COLO 205 colon
[53] = tested on: ACHN renal
[54] = tested on: SF-539 CNS
[55] = tested on: A549 NSCLC
[56] = tested on: DU-145 prostate
[57] = tested on: SR leukemia

## CCCCCc1ccc(S(=O)(=O)N(C(C)=O)c2cccc(-c3csc(N(CCN4CCN(C)CC4)C(C)=O)n3)c2)cc1
[1]
  GI50: 2230 nM
  TGI: 5.64 µM
[2]
  GI50: 3070 nM
  TGI: 6.22 µM
[3]
  GI50: 3990 nM
  TGI: 7.44 µM
[4]
  GI50: 2940 nM
  TGI: 6.04 µM
[5]
  GI50: 3400 nM
  TGI: 6.75 µM
[6]
  GI50: 642 nM
  TGI: 2000 nM
[7]
  GI50: 4210 nM
  TGI: 7.79 µM
[8]
  GI50: 4080 nM
  TGI: 7.57 µM
[9]
  GI50: 4.04 µM
  TGI: 7.64 µM
[10]
  GI50: 2930 nM
  TGI: 6.2 µM
[11]
  GI50: 2860 nM
  TGI: 5.96 µM
[12]
  GI50: 85 nM
  TGI: 1260 nM
[13]
  GI50: 3790 nM
  TGI: 7.27 µM
[14]
  GI50: 2790 nM
  TGI: 6.73 µM
[15]
  GI50: 2960 nM
  TGI: 6.61 µM
[16]
  GI50: 991 nM
  TGI: 4.51 µM
[17]
  GI50: 3580 nM
  TGI: 7.3 µM
[18]
  GI50: 3310 nM
  TGI: 6.57 µM
[19]
  GI50: 929 nM
  TGI: 3410 nM
[20]
  GI50: 1060 nM
  TGI: 4.62 µM
[21]
  GI50: 3300 nM
  TGI: 10.8 µM
[22]
  GI50: 3560 nM
  TGI: 7.6 µM
[23]
  GI50: 987 nM
  TGI: 3740 nM
[24]
  GI50: 2500 nM
  TGI: 7.53 µM
[25]
  GI50: 837 nM
  TGI: 2980 nM
[26]
  GI50: 1150 nM
  TGI: 4.07 µM
[27]
  GI50: 4370 nM
  TGI: 8.1 µM
[28]
  GI50: 3910 nM
  TGI: 7.55 µM
[29]
  GI50: 3490 nM
  TGI: 7.42 µM
[30]
  GI50: 830 nM
  TGI: 3300 nM
[31]
  GI50: 1060 nM
  TGI: 5.21 µM
[32]
  GI50: 824 nM
  TGI: 3190 nM
[33]
  GI50: 3800 nM
  TGI: 7.39 µM
[34]
  GI50: 3630 nM
  TGI: 7.15 µM
[35]
  GI50: 1190 nM
  TGI: 4350 nM
[36]
  GI50: 3320 nM
  TGI: 7.06 µM
[37]
  GI50: 2750 nM
  TGI: 5.81 µM
[38]
  GI50: 1950 nM
  TGI: 7.49 µM
[39]
  GI50: 3510 nM
  TGI: 6.95 µM
[40]
  GI50: 4.09 µM
  TGI: 8.82 µM
[41]
  GI50: 4040 nM
  TGI: 8.04 µM
[42]
  GI50: 3500 nM
  TGI: 7.55 µM
[43]
  GI50: 1400 nM
  TGI: 4.61 µM
[44]
  GI50: 1220 nM
  TGI: 5.26 µM
[45]
  GI50: 2640 nM
  TGI: 5.96 µM
[46]
  GI50: 751 nM
  TGI: 3.01 µM
[47]
  GI50: 3500 nM
  TGI: 6.81 µM
[48]
  GI50: 1.24 µM
  TGI: 4.75 µM
[49]
  GI50: 1580 nM
  TGI: 5.04 µM
[50]
  GI50: 856 nM
  TGI: 2710 nM
[51]
  GI50: 3630 nM
  TGI: 7.14 µM
[52]
  GI50: 815 nM
  TGI: 2960 nM
[53]
  GI50: 3520 nM
  TGI: 6.77 µM
[54]
  GI50: 3640 nM
  TGI: 7.01 µM
[55]
  GI50: 3030 nM
  TGI: 6.27 µM
[56]
  GI50: 3480 nM
  TGI: 6.81 µM

## CCCCCc1ccc(S(=O)(=O)Nc2cc(-c3csc(NC(=O)CN4CCN(C)CC4)n3)ccc2OC)cc1
[1]
  GI50: 887 nM
  TGI: 1.7 µM
[2]
  GI50: 873 nM
  TGI: 1.62 µM
[3]
  GI50: 867 nM
  TGI: 1.65 µM
[4]
  GI50: 2520 nM
  TGI: 11.2 µM
[5]
  GI50: 1140 nM
  TGI: 2.77 µM
[6]
  GI50: 884 nM
  TGI: 1640 nM
[7]
  GI50: 969 nM
  TGI: 1.98 µM
[8]
  GI50: 1410 nM
  TGI: 5.1 µM
[9]
  GI50: 5.14 µM
  TGI: 13 µM
[10]
  GI50: 869 nM
  TGI: 1.97 µM
[11]
  GI50: 736 nM
  TGI: 1.61 µM
[12]
  GI50: 866 nM
  TGI: 1630 nM
[13]
  GI50: 1920 nM
  TGI: 9.16 µM
[14]
  GI50: 921 nM
  TGI: 2.06 µM
[15]
  GI50: 1190 nM
  TGI: 3.51 µM
[16]
  GI50: 1070 nM
  TGI: 2.34 µM
[17]
  GI50: 915 nM
  TGI: 1.86 µM
[18]
  GI50: 892 nM
  TGI: 1.61 µM
[19]
  GI50: 876 nM
  TGI: 1650 nM
[20]
  GI50: 857 nM
  TGI: 1.96 µM
[21]
  GI50: 919 nM
  TGI: 2.19 µM
[22]
  GI50: 898 nM
  TGI: 1.92 µM
[23]
  GI50: 878 nM
  TGI: 1640 nM
[24]
  GI50: 925 nM
  TGI: 2.16 µM
[25]
  GI50: 976 nM
  TGI: 2090 nM
[26]
  GI50: 986 nM
  TGI: 1.97 µM
[27]
  GI50: 850 nM
  TGI: 1.64 µM
[28]
  GI50: 889 nM
  TGI: 1.7 µM
[29]
  GI50: 1310 nM
  TGI: 4.1 µM
[30]
  GI50: 937 nM
  TGI: 1950 nM
[31]
  GI50: 1070 nM
  TGI: 4.47 µM
[32]
  GI50: 867 nM
  TGI: 1690 nM
[33]
  GI50: 1840 nM
  TGI: 7.12 µM
[34]
  GI50: 993 nM
  TGI: 2.01 µM
[35]
  GI50: 717 nM
  TGI: 1500 nM
[36]
  GI50: 1800 nM
  TGI: 7.42 µM
[57]
  GI50: 993 nM
  TGI: 2620 nM
[37]
  GI50: 901 nM
  TGI: 1.91 µM
[38]
  GI50: 1240 nM
  TGI: 3.92 µM
[39]
  GI50: 1280 nM
  TGI: 3.65 µM
[40]
  GI50: 6.89 µM
  TGI: 17.6 µM
[41]
  GI50: 1210 nM
  TGI: 2.92 µM
[42]
  GI50: 2370 nM
  TGI: 9.89 µM
[43]
  GI50: 924 nM
  TGI: 1.77 µM
[44]
  GI50: 1490 nM
  TGI: 4.54 µM
[45]
  GI50: 992 nM
  TGI: 2.34 µM
[47]
  GI50: 1540 nM
  TGI: 5.35 µM
[48]
  GI50: 5.41 µM
  TGI: 12.2 µM
[49]
  GI50: 788 nM
  TGI: 1.52 µM
[50]
  GI50: 871 nM
  TGI: 1680 nM
[51]
  GI50: 1260 nM
  TGI: 3.74 µM
[52]
  GI50: 821 nM
  TGI: 1680 nM
[53]
  GI50: 957 nM
  TGI: 1.98 µM
[54]
  GI50: 859 nM
  TGI: 1.61 µM
[55]
  GI50: 1430 nM
  TGI: 5.48 µM
[56]
  GI50: 1620 nM
  TGI: 4.96 µM
